Data published in US11077090B2, “Compounds and compositions and uses thereof” (Sunovion Pharmaceuticals Inc., priority 2016, dated 2021).
Read-outs that look alike come from different tables or passages of the source.

Tested on: compound-treated mice
Experiment: Neuropharmacological assay (SmartCube): behavioral activity signature and minimal effective dose
Assay type: in vivo
Conditions: for minimal effective dose: Mus musculus, ip, MED = dose having 50% or more total activity; for AD: ADHD (probability of activity signature) / AG: analgesic (probability of activity signature) / AX: anxiolytic (probability of activity signature) / CE: cognitive enhancer (probability of activity signature) / DP: anti-depressant (probability of activity signature) / MS: mood stabilizer (probability of activity signature) / PS: anti-psychotic (probability of activity signature) / SD: sedative hypnotic (probability of activity signature) / UN: uncharacterized CNS activity (probability of activity signature): i.p. 15 min before test, most efficacious dose(s)
Method in brief: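 Video-recorded behavior is compared algorithmically against a reference-compound database, yielding class probabilities (best dose reported). Compounds given i.p. in NMP/PEG/propylene glycol 15 min pre-test at 3 doses; potency as MED, the dose (mpk, range usually 0.3–30) reaching ≥50% total activity.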

[1] = read-out: Potency: minimal effective dose (MED)
[2] = read-out: Potency: minimal effective dose (MED), binned

Row | Compound | minimal effective dose [1] | AD: ADHD (probability of activity signature) | AG: analgesic (probability of activity signature) | AX: anxiolytic (probability of activity signature) | CE: cognitive enhancer (probability of activity signature) | DP: anti-depressant (probability of activity signature) | MS: mood stabilizer (probability of activity signature) | PS: anti-psychotic (probability of activity signature) | SD: sedative hypnotic (probability of activity signature) | UN: uncharacterized CNS activity (probability of activity signature) | minimal effective dose [2]
1 | N[C@@H]1COCc2cccc(Cl)c21 [Example 127] | < 3 mg/kg | + (LOQ ≤ + <5%) | ++ (5% ≤ ++ <25%) | ++ (5% ≤ ++ <25%) | ++ (5% ≤ ++ <25%) | ++ (5% ≤ ++ <25%) | + (LOQ ≤ + <5%) | ++ (5% ≤ ++ <25%) | + (LOQ ≤ + <5%) | +++ (25% ≤ +++ <50%) | –
2 | Cc1cccc2c1[C@H](C)OC[C@@H]2N [Example 255] | – | + (LOQ ≤ + <5%) | + (LOQ ≤ + <5%) | + (LOQ ≤ + <5%) | + (LOQ ≤ + <5%) | + (LOQ ≤ + <5%) | + (LOQ ≤ + <5%) | + (LOQ ≤ + <5%) | ++ (5% ≤ ++ <25%) | ++ (5% ≤ ++ <25%) | 10 to 30 mg/kg
3 | Cc1ccc2c(c1C)C(NC(C)C)COC2.Cl (stereo not drawn) [Example 55] | 3 to 10 mg/kg | + (LOQ ≤ + <5%) | ++ (5% ≤ ++ <25%) | ++ (5% ≤ ++ <25%) | ++ (5% ≤ ++ <25%) | + (LOQ ≤ + <5%) | + (LOQ ≤ + <5%) | ++ (5% ≤ ++ <25%) | + (LOQ ≤ + <5%) | +++ (25% ≤ +++ <50%) | –
4 | C#CCN[C@H]1c2ccccc2CO[C@H]1C.Cl [Example 271] | – | ++ (5% ≤ ++ <25%) | + (LOQ ≤ + <5%) | ++ (5% ≤ ++ <25%) | + (LOQ ≤ + <5%) | ++ (5% ≤ ++ <25%) | +++ (25% ≤ +++ <50%) | + (LOQ ≤ + <5%) | ++ (5% ≤ ++ <25%) | ++ (5% ≤ ++ <25%) | 3 to 10 mg/kg
5 | C[C@@H]1OCc2cc(F)ccc2[C@@H]1N.Cl (single isomer, unassigned) [Example 212] | – | + (LOQ ≤ + <5%) | ++ (5% ≤ ++ <25%) | ++ (5% ≤ ++ <25%) | + (LOQ ≤ + <5%) | + (LOQ ≤ + <5%) | + (LOQ ≤ + <5%) | + (LOQ ≤ + <5%) | + (LOQ ≤ + <5%) | ++++ (50% ≤ ++++) | 10 to 30 mg/kg
6 | Cl.NC1CCOCc2c(Cl)cccc21 (stereo not drawn) [Example 40] | 3 to 10 mg/kg | + (LOQ ≤ + <5%) | ++ (5% ≤ ++ <25%) | +++ (25% ≤ +++ <50%) | ++ (5% ≤ ++ <25%) | + (LOQ ≤ + <5%) | + (LOQ ≤ + <5%) | ++ (5% ≤ ++ <25%) | + (LOQ ≤ + <5%) | ++ (5% ≤ ++ <25%) | –
7 | C[C@@H]1OCc2ccc(C(F)(F)F)cc2[C@@H]1N.Cl [Example 228] | – | + (LOQ ≤ + <5%) | ++ (5% ≤ ++ <25%) | ++ (5% ≤ ++ <25%) | + (LOQ ≤ + <5%) | ++ (5% ≤ ++ <25%) | + (LOQ ≤ + <5%) | ++ (5% ≤ ++ <25%) | + (LOQ ≤ + <5%) | +++ (25% ≤ +++ <50%) | 10 to 30 mg/kg
8 | CC[C@@H]1OCc2ccc(C)cc2[C@H]1N (single isomer, unassigned) [Example 178] | – | + (LOQ ≤ + <5%) | ++ (5% ≤ ++ <25%) | ++ (5% ≤ ++ <25%) | + (LOQ ≤ + <5%) | ++ (5% ≤ ++ <25%) | + (LOQ ≤ + <5%) | ++ (5% ≤ ++ <25%) | ++ (5% ≤ ++ <25%) | +++ (25% ≤ +++ <50%) | 10 to 30 mg/kg
9 | CC[C@H]1OCc2ccccc2[C@@H]1NC.Cl [Example 259] | – | + (LOQ ≤ + <5%) | + (LOQ ≤ + <5%) | + (LOQ ≤ + <5%) | + (LOQ ≤ + <5%) | ++ (5% ≤ ++ <25%) | + (LOQ ≤ + <5%) | + (LOQ ≤ + <5%) | +++ (25% ≤ +++ <50%) | ++ (5% ≤ ++ <25%) | 10 to 30 mg/kg
10 | Cc1cccc2c1CO[C@@H](C)[C@H]2N.Cl [Example 97] | 3 to 10 mg/kg | + (LOQ ≤ + <5%) | + (LOQ ≤ + <5%) | ++ (5% ≤ ++ <25%) | ++ (5% ≤ ++ <25%) | + (LOQ ≤ + <5%) | + (LOQ ≤ + <5%) | ++ (5% ≤ ++ <25%) | ++ (5% ≤ ++ <25%) | ++++ (50% ≤ ++++) | –
11 | CCc1ccc2c(c1)C(N)COC2.Cl (stereo not drawn) [Example 20, 6-Ethylisochroman-4-amine hydrochloride] | 3 to 10 mg/kg | + (LOQ ≤ + <5%) | ++ (5% ≤ ++ <25%) | +++ (25% ≤ +++ <50%) | ++ (5% ≤ ++ <25%) | ++ (5% ≤ ++ <25%) | + (LOQ ≤ + <5%) | +++ (25% ≤ +++ <50%) | ++ (5% ≤ ++ <25%) | ++ (5% ≤ ++ <25%) | –
12 | CN[C@@H]1COCc2c(Cl)cccc21 [Example 149] | < 3 mg/kg | + (LOQ ≤ + <5%) | ++ (5% ≤ ++ <25%) | ++ (5% ≤ ++ <25%) | ++ (5% ≤ ++ <25%) | ++ (5% ≤ ++ <25%) | + (LOQ ≤ + <5%) | +++ (25% ≤ +++ <50%) | ++ (5% ≤ ++ <25%) | +++ (25% ≤ +++ <50%) | –
13 | CN[C@@H]1COCc2ccc(OC)cc21 [Example 139] | 3 to 10 mg/kg | + (LOQ ≤ + <5%) | ++ (5% ≤ ++ <25%) | ++ (5% ≤ ++ <25%) | ++ (5% ≤ ++ <25%) | ++ (5% ≤ ++ <25%) | + (LOQ ≤ + <5%) | ++ (5% ≤ ++ <25%) | + (LOQ ≤ + <5%) | +++ (25% ≤ +++ <50%) | –
14 | Cc1ccc2c(c1)[C@H](N)[C@H](C)COC2.Cl (relative stereo) [Example 74, cis-4,7-dimethyl-1,3,4,5-tetrahydrobenzo [c]oxepin-5-amine hydrochloride] | 10 to 30 mg/kg | + (LOQ ≤ + <5%) | ++ (5% ≤ ++ <25%) | ++ (5% ≤ ++ <25%) | + (LOQ ≤ + <5%) | ++ (5% ≤ ++ <25%) | + (LOQ ≤ + <5%) | + (LOQ ≤ + <5%) | + (LOQ ≤ + <5%) | +++ (25% ≤ +++ <50%) | –
15 | Cc1ccc(Cl)c2c1C(N)COC2.Cl (stereo not drawn) [Example 48, 8-Chloro-5-methylisochroman-4-amine hydrochloride] | < 3 mg/kg | + (LOQ ≤ + <5%) | ++ (5% ≤ ++ <25%) | +++ (25% ≤ +++ <50%) | +++ (25% ≤ +++ <50%) | + (LOQ ≤ + <5%) | + (LOQ ≤ + <5%) | ++ (5% ≤ ++ <25%) | ++ (5% ≤ ++ <25%) | ++ (5% ≤ ++ <25%) | –
